# Results as given in US6485970B1, “Immunointeractive antibody” (priority 1997, dated 2002).
# Ends that are not written are not given here.
# Columns and labels:
# [1] = test system: sensory nerves; experiment: Rat footpad blister model, vascular response to substance P perfusion; format: in vivo; conditions: SP 1 μM alone
# Description: (§1) A vacuum-induced blister model in the footpad of anaesthetised rats is used to induce an inflammatory response in naive skin by (a) electrical stimulation (ES) of the distal end of the cut sciatic nerve at 20 v, 5 Hz, […] for 1 min or (b) superfusion of the sensory neuropeptide; substance P (SP) over the blister base.
# Male outbred Sprague-Dawley rats with an average weight of 250-300 gm were used (n=6-8 per group). Anaesthesia was induced with pentobarbitone sodium (Nembutal, 60 mg/kg, i.p.). To ensure that rats remained under a constant stage of surgical anaesthesia additional doses (15 mg/kg) were administered during the experiment. The absence of an eyelash reflex was used as an indication of the level of unconciousness. […]
# (§2) For measurement of local blood flow, a probe attached to a laser Doppler flowmeter (Periflux, PF2B, Perimed, Sweden) was inserted vertically through a third port in the perspex chamber above the blister base. Relative blood flow was recorded over time on a chart recorder and measured as the surface area under the response curve in cm^2 using a digital planimeter.
# (§3) Vasodilator responses were measured as the area under the response curve (cm^2) using a digital planimeter (Tamaya, Japan). For vascular responses to ES the area was measured for 20 min following stimulation. […] Results are expressed as mean±SEM. […]
# [2] = test system: sensory nerves; experiment: Rat footpad blister model, vascular response to antidromic electrical stimulation of the sciatic nerve; format: in vivo
# Description: as §1
# Male outbred Sprague-Dawley rats with an average weight of 250-300 gm were used (n=6-8 per group). Anaesthesia was induced with pentobarbitone sodium (Nembutal, 60 mg/kg, i.p.). To ensure that rats remained under a constant stage of surgical anaesthesia additional doses (15 mg/kg) were administered during the experiment. The absence of an eyelash reflex was used as an indication of the level of unconciousness. At the end of the experiment, animals were killed by barbituate overdose (100 mg/kg).
# A blister was induced on the hind footpad on the anaesthetised rat by applying a vacuum pressure of −40 kPa to the glabrous skin for approximately 30 mins, using a metal suction cap heated to 40° C. by an attached heating element.
# When a blister was established, the surface epithelium was removed and a perspex chamber with inlet and outlet ports was fixed over the blister base. Perfusion of the drugs over the blister was maintained at 4 ml/h by a peristaltic pump (Microperpex S, LKB, Sweden). Both perfusion and body temperature were kept at 37° C.
# An initial 15 min equilibration with Ringer's solution (NaCl 9.0 g, KCl 0.42 g, CaCl2 0.48 g, NaHCO3 0.2 g in 1000 ml dH2O) was allowed before each experiment, during which time a stable baseline was established.
# The right sciatic nerve in the mid-thigh region of the anaesthetised rat was dissected free and cut as proximally as possible. The distal portion of the cut nerve was placed over bipolar platinum electrodes and immersed in liquid paraffin warmed to 37° C. and contained in a bath that was formed by raising the skin flaps of the wound. The distal end of the sciatic nerve was stimulated with a Grass S48 stimulator at 20 V, 5 Hz, 0.5 ms square waves for 1 min. These parameters were previously shown to stimulate sensory nerves with subsequent release of sensory peptides.
# as §2, §3
# [3] = human, in vivo
# [4] = test system: BA-TABM; experiment: Competitive inhibition ELISA, BA-TABM against plate bound BA-HSA; format: binding, human; conditions: competitor pre-incubated with BA-TABM
# Description: FIG. 13 is a graphical representation of competitive inhibition ELISA between BA-TABM and various haptens. Purified BA-TABM was diluted and pre-mixed with various haptens. […] The amount of TABM binding as determined using the mouse monoclonal anti-human TABM antibody (MG3C9-1A12). [drawing 12]
# FIG. 14 is a graphical representation showing inhibition ELISA between BA-TABM and various chemicals. Purified BA-TABM was diluted and pre-mixed with various chemicals. […] The amount of TABM binding was determined using the mouse monoclonal anti-human TABM antibody (MG3C9-1A12). [drawing 13]
# The competing antigens or haptens were serially diluted (½) in the diluted serum to give a range equivalent to 5000-312.5 ng per well. […] The plate was then incubated for 60 minutes at 37° C. After washing, mouse anti-human TABM was diluted ( 1/2000), added to the plate and incubated for 90 minutes at 37° C., followed by sheep anti-mouse immunoglobulins ( 1/1000). The assay was then completed as previously described. The same ELISA conditions were used with non-bound organic molecules, except that pre-incubation of competing molecules with BA-TABM and serum was for 60 minutes.
compound,measurement,setting,value
"Substance P (RPKPQQFFGLM; ends and bridges not checked; UniProt P20366 58-68, looked up) [SP, sensory neuropeptide]","vasodilatation response to SP, area under curve 30 min",[1],44.1±3.9 cm^2
TGF-β,area of the vascular response to ES in presence of TGF-β,"[2]; capsaicin-pretreated rats, TGF-β 10 pg/ml",12.1±1.0 cm^2
same,effect on baseline blood flow,"[2]; control rats, TGF-β 10 pg/ml",did not alter the baseline
same,"area under the vascular response curve to ES, 20 min","[2]; control rats, TGF-β 10 pg/ml perfused 10 min prior to ES and post stimulation",31.44±3.2 cm^2
"COc1cc(CNC(=O)CCCC/C=C/C(C)C)ccc1O [capsaicin, reference compound]",area of the vascular response to ES,"[2]; capsaicin-pretreated rats (50 mg/kg s.c., neonatal), no TGF-β",11.7±1.1 cm^2
Cc1ccccc1 [toluene],"Digit Symbol, Post Challenge Mean",[3],40.00 No. of correct items
same,"Focal Length, Post Challenge Mean",[3],29.53 cms
same,Letter Cancellation,[3],63% correct
same,"Letter Cancellation Time, Post Challenge Mean",[3],4.79 min
same,Letter Cancellation time,[3],(5′40″)
same,"Letter Cancellation, Post Challenge Mean",[3],77.56 % Correct
same,"Prose Memory (delayed), Post Challenge Mean",[3],8.77 No. Items recalled
same,"Prose Memory (immediate), Post Challenge Mean",[3],7.36 No. Items recalled
same,Prose: Delayed Recall,[3],6.5 items
same,Prose: Immediate Recall,[3],6 items
same,"STROOP (colour), Post Challenge Mean",[3],74.43 No. seconds/100 words
same,"STROOP (colour-word), Post Challenge Mean",[3],119.73 No. seconds/100 words
same,"STROOP (word), Post Challenge Mean",[3],58.93 No. seconds/100 words
same,Stroop: Colour word,[3],161 s
same,Stroop: Colours,[3],90 s
same,Stroop: Words,[3],75 s
same,Symbol Digit,[3],32 items
TMA-BSA: trimellitic acid (TMA) protein conjugate,inhibition of BA-TABM binding to plate bound BA-HSA,[4],Weaker inhibition
